In one test the target is T1, 5-HT2CR (Homo sapiens, UniProt P28335).
T1 sequence (P28335 33-458): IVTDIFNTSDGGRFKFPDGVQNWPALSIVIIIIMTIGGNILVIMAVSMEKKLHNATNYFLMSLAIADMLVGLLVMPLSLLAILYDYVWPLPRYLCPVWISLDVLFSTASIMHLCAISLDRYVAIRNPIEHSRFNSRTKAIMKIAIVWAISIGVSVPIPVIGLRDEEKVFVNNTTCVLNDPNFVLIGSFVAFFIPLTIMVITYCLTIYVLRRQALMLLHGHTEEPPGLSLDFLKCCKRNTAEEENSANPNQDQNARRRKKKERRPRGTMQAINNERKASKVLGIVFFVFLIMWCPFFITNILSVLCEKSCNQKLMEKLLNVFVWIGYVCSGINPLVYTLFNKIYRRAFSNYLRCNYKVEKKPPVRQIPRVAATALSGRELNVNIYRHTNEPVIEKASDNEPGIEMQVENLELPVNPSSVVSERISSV
The test can be described thus: NIMH-PDSP radioligand binding, 5-HT2C receptor.

For a further test, the target named is 5-HT1AR (Homo sapiens, UniProt P08908). In words: NIMH-PDSP radioligand binding, 5-HT1A receptor.
For the next test, the target named is 5-HT2AR (Homo sapiens, UniProt P28223). In words: NIMH-PDSP radioligand binding, 5-HT2A receptor.
In a further test the target is 5-HT7R (Homo sapiens, UniProt P34969). The test can be described thus: NIMH-PDSP radioligand binding, 5-HT7 receptor.
The target of another test is SERT (Homo sapiens, UniProt P31645). In words: NIMH-PDSP radioligand binding, serotonin transporter.
A further test deals with H1R (Homo sapiens, UniProt P35367). The test can be described thus: NIMH-PDSP radioligand binding, histamine H1 receptor.

Where a name gives a salt, the structure may show the parent alone.

SERT, sequence (P31645 whole entry): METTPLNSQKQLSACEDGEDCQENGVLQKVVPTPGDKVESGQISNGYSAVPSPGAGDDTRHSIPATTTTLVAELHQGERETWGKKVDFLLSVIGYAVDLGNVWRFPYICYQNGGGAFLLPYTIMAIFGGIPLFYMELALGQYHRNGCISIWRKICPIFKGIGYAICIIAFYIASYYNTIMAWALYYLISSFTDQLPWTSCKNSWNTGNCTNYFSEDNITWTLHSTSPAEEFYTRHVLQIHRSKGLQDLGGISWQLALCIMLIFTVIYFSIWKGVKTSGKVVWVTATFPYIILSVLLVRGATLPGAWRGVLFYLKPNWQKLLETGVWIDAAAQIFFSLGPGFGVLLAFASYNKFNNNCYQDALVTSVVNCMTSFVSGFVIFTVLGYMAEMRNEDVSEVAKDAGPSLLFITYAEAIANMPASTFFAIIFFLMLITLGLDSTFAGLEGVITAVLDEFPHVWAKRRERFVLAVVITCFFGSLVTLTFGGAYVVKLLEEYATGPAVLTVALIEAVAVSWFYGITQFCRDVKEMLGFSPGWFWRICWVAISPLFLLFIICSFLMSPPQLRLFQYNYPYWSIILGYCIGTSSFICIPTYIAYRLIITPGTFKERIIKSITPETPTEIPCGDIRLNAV
5-HT2AR, sequence (P28223 whole entry): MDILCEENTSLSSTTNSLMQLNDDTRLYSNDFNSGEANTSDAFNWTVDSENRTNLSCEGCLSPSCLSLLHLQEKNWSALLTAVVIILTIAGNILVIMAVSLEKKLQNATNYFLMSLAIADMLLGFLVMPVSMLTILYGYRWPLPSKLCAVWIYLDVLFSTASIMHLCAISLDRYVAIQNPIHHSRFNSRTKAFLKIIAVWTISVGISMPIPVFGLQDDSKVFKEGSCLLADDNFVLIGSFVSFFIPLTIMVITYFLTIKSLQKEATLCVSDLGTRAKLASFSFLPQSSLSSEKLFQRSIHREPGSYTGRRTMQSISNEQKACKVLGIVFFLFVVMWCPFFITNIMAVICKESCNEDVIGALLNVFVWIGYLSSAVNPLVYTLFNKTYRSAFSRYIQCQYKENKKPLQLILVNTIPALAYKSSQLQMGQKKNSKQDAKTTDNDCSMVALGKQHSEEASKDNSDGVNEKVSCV
5-HT1AR, sequence (P08908 whole entry): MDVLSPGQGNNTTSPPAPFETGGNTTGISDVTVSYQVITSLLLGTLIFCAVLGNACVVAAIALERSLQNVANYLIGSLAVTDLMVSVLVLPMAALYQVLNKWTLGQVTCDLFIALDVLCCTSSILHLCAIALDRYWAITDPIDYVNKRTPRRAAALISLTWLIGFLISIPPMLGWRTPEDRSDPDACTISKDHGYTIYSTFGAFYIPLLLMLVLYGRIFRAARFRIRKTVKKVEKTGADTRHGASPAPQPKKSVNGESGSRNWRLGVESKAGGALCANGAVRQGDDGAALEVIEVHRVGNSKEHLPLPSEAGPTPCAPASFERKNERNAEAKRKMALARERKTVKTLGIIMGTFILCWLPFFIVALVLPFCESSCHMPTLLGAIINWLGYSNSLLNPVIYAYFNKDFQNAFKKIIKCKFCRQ
H1R, sequence (P35367 whole entry): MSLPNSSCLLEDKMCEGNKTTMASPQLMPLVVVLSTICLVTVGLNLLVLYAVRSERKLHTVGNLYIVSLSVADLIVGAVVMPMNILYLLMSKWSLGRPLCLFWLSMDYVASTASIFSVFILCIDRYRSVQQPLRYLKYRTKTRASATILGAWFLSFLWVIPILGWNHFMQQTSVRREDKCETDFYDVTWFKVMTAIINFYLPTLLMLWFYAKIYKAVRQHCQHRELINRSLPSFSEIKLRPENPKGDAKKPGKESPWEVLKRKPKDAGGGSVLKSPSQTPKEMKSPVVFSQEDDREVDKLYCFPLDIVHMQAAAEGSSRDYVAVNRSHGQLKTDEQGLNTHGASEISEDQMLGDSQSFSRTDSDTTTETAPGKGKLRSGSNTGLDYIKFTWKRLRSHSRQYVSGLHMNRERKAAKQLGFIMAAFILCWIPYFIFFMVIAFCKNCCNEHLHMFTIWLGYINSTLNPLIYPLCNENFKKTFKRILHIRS
5-HT7R, sequence (P34969 whole entry): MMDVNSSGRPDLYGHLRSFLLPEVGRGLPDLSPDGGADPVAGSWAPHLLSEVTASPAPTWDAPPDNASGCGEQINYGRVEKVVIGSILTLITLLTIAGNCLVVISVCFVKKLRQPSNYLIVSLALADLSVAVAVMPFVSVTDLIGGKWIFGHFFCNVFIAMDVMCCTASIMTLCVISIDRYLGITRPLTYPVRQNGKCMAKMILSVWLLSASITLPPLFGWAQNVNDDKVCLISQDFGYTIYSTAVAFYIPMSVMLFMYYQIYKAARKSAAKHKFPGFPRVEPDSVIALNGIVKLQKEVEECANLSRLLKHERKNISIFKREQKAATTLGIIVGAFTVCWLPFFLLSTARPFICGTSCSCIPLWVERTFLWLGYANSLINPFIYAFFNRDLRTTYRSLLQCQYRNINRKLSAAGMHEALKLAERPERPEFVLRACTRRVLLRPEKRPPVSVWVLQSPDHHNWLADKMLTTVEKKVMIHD

Turning to `O=C(CCCCN1CCC2(CC1)C(=O)NCN2c1ccccc1)c1nc2ccccc2s1` [Compound 9], the “Ki 5HT2CR” value at 5-HT2CR is “MTA”.
With `Cl.O=C(CCCCN1C2CCC1CC(O)(c1ccc(Cl)cc1)C2)c1nc2ccccc2s1` (stereo not drawn) [Compound 22, 1-(Benzo[d]thiazol-2-yl)-5-(3-(4-chlorophenyl)-3-hydroxy-8-azabicyclo[3.2.1]octan-8-yl)-pentan-1-one hydrochloride], the “Ki 5-HT1A” value on 5-HT1AR was “MTA”. Besides, the “Ki 5-HT2A” value at 5-HT2AR is on record as “MTA”. Besides, at 5-HT2CR, the “Ki 5HT2CR” value is given as “MTA”.
With `O=C(CCCCN1CCN(C(c2ccc(F)cc2)c2ccc(F)cc2)CC1)c1nc2ccccc2s1` [Compound 17, 1-(benzo[d]thiazol-2-yl)-5-(4-(bis(4-fluorophenyl)methyl)piperazin-1-yl)pentan-1-one dihydrochloride], on 5-HT7R, the “pKi ± SE 5-HT7” value was 562.0/ 6.3±0.1.
With `O=C1NCN(c2ccccc2)C12CCN(CCCCc1c[nH]c3ccccc13)CC2` [Compound 11, 8-(4-(1H-indol-3-yl)butyl)-1-phenyl-1,3,8-triazaspiro[4.5]decan-4-one], on 5-HT2CR, the “5-HT2CR binding affinity (in words)” value is listed as “no significant affinity” and the “Ki 5HT2CR” value is “MTA”. Moreover, the “SERT binding affinity (in words)” value on SERT is reported as “high affinity”. In addition, at H1R, the “H1R binding affinity (in words)” value is listed as “moderate binding”.
Regarding `O=C1NCN(c2ccccc2)C12CCN(CCCCc1nc3ccccc3s1)CC2` [Compound 7, 8-(4-(benzo[d]thiazol-2-yl)butyl)-1-phenyl-1,3,8-triazaspiro[4.5]decan-4-one], the “Ki 5HT2CR” value on 5-HT2CR is on record as “MTA”. Moreover, on SERT, the “Ki SERT” value is recorded as “MTA”.
Turning to `O=C1NCN(c2ccccc2)C12CCN(CCCCc1nc3ccccc3o1)CC2` [Compound 10, 8-(4-(benzo[d]oxazol-2-yl)butyl)-1-phenyl-1,3,8-triazaspiro[4.5]decan-4-one], the “Ki 5-HT2A” value on 5-HT2AR is listed as “MTA”. The “Ki 5HT2CR” value on 5-HT2CR is “MTA”. For the same molecule, at SERT, the “Ki SERT” value is on record as “MTA” and the “SERT binding affinity (in words)” value is “without significant affinity”.

The values are drawn from publication PMC5209244 (Bioorganic & medicinal chemistry, 2016).
